This is an account of results in patent US9309238B2, “Imidazo [1,2-a]pyridine compounds, synthesis thereof, and methods of using same” (priority 2009, dated 2016).

≈ marks a conversion by molar mass, not a printed value. Where “and” joins values, the source holds several entries; their conditions need not be identical. Identical values can stand only once. Like-named read-outs stand apart in the source and are kept apart here.

Series [1] has as its system M. marinum. Description: NTM activity, M. marinum. The class given is cell-based.
Series [2] concerns M. chelonae. In words: NTM activity, M. chelonae. The class given is cell-based.
In series [3] the test system is M. avium. In words: NTM activity, M. avium. The class given is cell-based.
Series [4] has as its system M. kansasii. In words: NTM activity, M. kansasii. It is filed as cell-based.
The test system of series [5] is M. bovis BCG. In words: NTM activity, M. bovis BCG. It is filed as cell-based.
For series [6], the system named is H37Rv TB. Conditions: current TB clinical candidates; cited from earlier work.
Series [7] deals with MDR-TB. Conditions: current TB clinical candidates; cited from earlier work.
Series [8] relates to TB. Conditions: strain not stated; cited from earlier work.
For series [9], the system named is HeLa cells. In words: toxicity to HeLa cells. It is filed as cell-based.
Series [10] has as its system MDR-TB. In words: MIC against MDR-TB (Table 1). The class given is cell-based. Conditions: Mycobacterium tuberculosis.
For series [11], the system named is VERO cells (African Green Monkey epithelial kidney cells). In words: VERO cellular toxicity assay. Conditions: Chlorocebus sabaeus. The class given is cell-based.
Series [12] concerns panel of diverse organisms (Gram-positive and Gram-negative strains, yeast, fungi, cancer cell lines, VERO cell line). Description: screen against a panel of diverse control organisms and cell lines. The class given is cell-based. Conditions: B. subtilis, S. aureus, MRSA, VRE E. faecalis, E. coli, P. aeruginosa, S. salmonicolor, C. albicans, P. notatum, Huvec, K-562, HeLa, PC-3, MCF-7, VERO. An excerpt:
In embodiments, compounds ND-8448, ND-8451 and ND-8454 were all screened against a panel of diverse organisms which included four Gram-positive strains (Bacillus subtilis, Staphylococcus aureus, MRSA Staphylococcus aureus, VRE Enterococcus Faecalis), two Gram-negative strains (E. coli, Pseudomonas aeruginosa), a yeast (Sporobolomyces salmonicolor) and fungi (Candida albicans and Penicillium notatum), as well as five cancer cell lines (Huvec, K-562, HeLa, PC-3 and MCF-7) and the VERO cell line to check for mammalian toxicity.

Series [13] relates to M. smegmatis. In words: cross screen against M. smegmatis. The class given is cell-based. Conditions: Mycolicibacterium smegmatis.
Series [14] has as its system H37Rv TB. Description: in vitro activity against H37Rv TB (MIC). Conditions: Mycobacterium tuberculosis. The class given is cell-based.
The mark [15] stands for this setting: Mycobacterium tuberculosis variant bovis BCG, BCG.

Usually MIC90 stands for an inhibitory concentration at the 90% level, which refers to growth in some studies and to a panel of isolates in others. Take `CC[C@@H](CO)NCCN[C@@H](CC)CO` [EMB, reference compound]: the MIC90 is 965.56 µM (≈ 197 µg/mL) in series [1]; above 2000 µM in series [2]; above 2000 µM in series [3]; below 7.813 µM in [4] (M. kansasii); below 7.813 µM in series [5] (M. bovis BCG).
As a reminder, the MIC is the smallest concentration in the dilution series that meets the test's criterion for growth inhibition. Turning to `COc1c(N2CCNC(C)C2)c(F)cc2c(=O)c(C(=O)O)cn(C3CC3)c12` (stereo not shown) [Gatifloxacin], the minimal inhibitory concentration (MIC) entry in [6] is listed as “MIC = 0.03-1.56 μg/mL H37Rv TB”; in series [7], “MIC = 3.12 μg/mL MDR-TB”.
For the compound `NNC(=O)c1ccncc1` [INH, Isoniazid, reference compound], the MIC90 in series [1] (Mycobacterium marinum) was above 500 µM; in series [2] (Mycobacteroides chelonae) it was above 500 µM; in series [3] (Mycobacterium avium), above 500 µM; in series [4] (Mycobacterium kansasii), 5.82 µM (≈ 0.798 µg/mL); in series [5] (setting [15]), below 1.95 µM.
As to `Cc1c(CN2CCN(c3cccc(C(F)(F)F)c3)CC2)cc(-c2ccccc2)n1NC(=O)c1ccncc1` [LL-3858], the MIC entry in [8] is “MIC = 0.06 μg/mL”.
What is called IC50 is the concentration that gives 50% inhibition. Regarding `Cc1ccn2c(C(=O)NCc3ccccc3)c(C)nc2c1` [ND-8454, N-benzyl-2,7-dimethylimidazo[1,2-a]pyridine-3-carboxamide], in series [9], the “toxicity to HeLa cells” value was above 50 µM. The MIC is 0.02 mg/L (≈ 0.0716 µM) in series [10]; 0.08 µg/mL and 0.286 µM in series [14]. Besides, the IC50 in [11] is above 128 µM. Also, the MIC90 in [1] (Mycobacterium marinum) was above 50 µM; in series [2] (Mycobacteroides chelonae), above 50 µM; in series [3] (Mycobacterium avium), 1.32 µM (≈ 0.369 µg/mL); in series [13], at least 5 mg/L; in [4] (Mycobacterium kansasii) it was 1.32 µM (≈ 0.369 µg/mL); in series [5] (setting [15]), 0.33 µM (≈ 0.0922 µg/mL). For the same compound, the “activity against control organisms” value in series [12] was “inactive”.
Compound `Cc1ccn2c(C(=O)NCc3cccc(F)c3)c(C)nc2c1` [ND-9361] gave an MIC90 in series [13] of at least 5 mg/L.
With `Cc1ccn2c(C(=O)NCc3ccc(Oc4ccc(F)cc4)cc3)c(C)nc2c1` [ND-9758], the MIC90 was 5.21 µM (≈ 2.03 µg/mL) in series [1]; 6.07 µM (≈ 2.36 µg/mL) in [2]; below 0.195 µM in series [3]; below 0.195 µM in series [4] (M. kansasii); below 0.195 µM in series [5] (M. bovis BCG).
For `Cc1ccn2c(C(=O)NCc3cccc(OC(C)C)c3)c(C)nc2c1` [ND-9872], the MIC90 was above 50 µM in series [1]; above 50 µM in series [2]; 0.71 µM (≈ 0.24 µg/mL) in [3]; 0.71 µM (≈ 0.24 µg/mL) in series [4] (M. kansasii); below 0.195 µM in [5] (M. bovis BCG).
Regarding `Cc1ccn2c(C(=O)NCc3ncc(C(F)(F)F)cc3Cl)c(C)nc2c1` [ND-9902], the MIC90 in series [1] is above 50 µM; in series [2] it was above 50 µM; in series [3], 4.42 µM (≈ 1.69 µg/mL); in [4] (M. kansasii), 4.42 µM (≈ 1.69 µg/mL); in series [5] (M. bovis BCG), 0.75 µM (≈ 0.287 µg/mL).
Take `Cc1ccc2nc(C)c(C(=O)NCc3ccc(S(C)(=O)=O)cc3)n2c1` [ND-9965]: the MIC90 in series [1] is above 50 µM; in [2], above 50 µM; in series [3], 6.03 µM (≈ 2.16 µg/mL); in series [4] (M. kansasii), 6.03 µM (≈ 2.16 µg/mL); in series [5] (M. bovis BCG), 0.23 µM (≈ 0.0822 µg/mL).
On to `C[C@]1(COc2ccc(N3CCC(Oc4ccc(OC(F)(F)F)cc4)CC3)cc2)Cn2cc([N+](=O)[O-])nc2O1` [OPC-67683], for which the MIC result in series [6] and in [7] was “MIC of 0.006-0.024 μg/mL” throughout.
Consider `COc1nc2ccc(Br)cc2cc1[C@@H](c1ccccc1)[C@@](O)(CCN(C)C)c1cccc2ccccc12` [TMC207], for which the MIC result in [6] was “MIC = 0.06 μg/mL vs. H37Rv and MDR-TB”; in series [7], “MIC = 0.06 μg/mL vs. H37Rv and MDR-TB”.
